pEC50: −log10 of the molar value.
Key:
[1] = biological target: T1, human M1 receptor (hCHRM1) (Homo sapiens, UniProt P11229); test: Measurement of M1 receptor positive allosteric modulator (M1PAM) activity, calcium fluorescence in CHO-K1 cells; format: cell-based; conditions: for activity (%) at 10 μM: 10 μM test compound with acetylcholine at EC20, 100% = acetylcholine 1 μM, 0% = DMSO; for pEC50: inflection point in the concentration-dependent curve, acetylcholine at EC20 (final 0.6-0.8 nM), CHO-K1 cells expressing human M1, Fluo-4, FLIPRtetra, read-out: IP value;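 on pEC50: potency reported as IP value in nM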
T1 construct: expressed in transfected cells
T1 sequence (P11229 1-460): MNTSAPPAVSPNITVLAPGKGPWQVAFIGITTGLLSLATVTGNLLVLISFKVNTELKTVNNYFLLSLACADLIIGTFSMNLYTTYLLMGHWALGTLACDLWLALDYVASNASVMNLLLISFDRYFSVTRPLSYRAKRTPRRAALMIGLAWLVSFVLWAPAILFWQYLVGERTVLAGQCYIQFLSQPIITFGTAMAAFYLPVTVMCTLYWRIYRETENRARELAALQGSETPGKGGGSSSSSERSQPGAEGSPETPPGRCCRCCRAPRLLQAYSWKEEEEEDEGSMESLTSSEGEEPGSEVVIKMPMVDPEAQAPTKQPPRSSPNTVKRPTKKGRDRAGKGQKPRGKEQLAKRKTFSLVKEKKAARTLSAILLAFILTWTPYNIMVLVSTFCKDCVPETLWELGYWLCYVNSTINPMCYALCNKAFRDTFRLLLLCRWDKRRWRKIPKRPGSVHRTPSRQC
Procedure: Measurement of M1 Receptor Positive Allosteric Modulator (M1PAM) Activity
The activity of a test compound in the presence of acetylcholine at EC20 concentration (final concentration 0.6-0.8 nM), which affords an action corresponding to about 20% of the maximum activity, was measured as PAM activity. The method is as follows. CHO-K1 cells stably expressing a human M1 receptor (hCHRM1) were plated on a 384-well black clear bottom plate (BD Falcon) at 5,000 cells/well, and cultured in an incubator at 37° C., 5% CO2 for 1 day. The medium in the cell plate was removed, and assay buffer A containing calcium indicator (Recording medium (DOJINDO LABORATORIES), 0.1% BSA (Wako Pure Chemical Industries, Ltd.), 2.5 μg/mL Fluo-4 AM (DOJINDO LABORATORIES), 0.08% Pluronic F127 (DOJINDO LABORATORIES), 1.25 mM probenecid (DOJINDO LABORATORIES)) was added at 30 μL/well. The cells were left standing in the incubator at 37° C., 5% CO2 for 30 min, and further left standing at room temperature for 30 min. A test compound prepared by diluting with assay buffer B (HBSS (Invitrogen), 20 mM HEPES (Invitrogen), 0.1% BSA) containing 2.4-3.2 nM acetylcholine was added at 10 μL/well, and the fluorescence was measured by FLIPRtetra (Molecular Devices) for 1 min every 1 second. With the definition that the amount of change in the fluorescence on addition of acetylcholine (final concentration 1 μM) is 100% and that on addition of DMSO instead of a test compound is 0%, the activity (%) of the test compound was calculated, and the inflection point in the concentration-dependent curve of the test compound was calculated as IP values.

[2] = test system: IP1 production in hippocampi; test: Measurement of myo-inositol 1 phosphate (IP1) in rat hippocampi after oral administration; format: in vivo, male Long-Evans rats; conditions: rat hippocampus IP1/protein ratio, Vehicle group as 100%
Procedure: Measurement of Myo-Inositol 1 Phosphate (IP1)
Animals used were male Long-Evans rats. They were used after acclimation for at least 1 week. Test compounds were suspended in 0.5% (w/v) aqueous methylcellulose solution, and the suspension was orally administered to the rats. After a given time, lithium chloride was dissolved in saline and subcutaneously administered into the rats. After a given time, their bilateral hippocampi were isolated from the rats, and the wet weight thereof was measured. The isolated hippocampi were homogenized with HEPES buffer, followed by centrifugation. The IP1 and protein concentrations in the supernatant were measured by IP-One HTRF(R) assay kit (Cisbio Bioassays) and BCA protein assay kit (Thermo Scientific), respectively. The level of the IP1 production was expressed as the ratio of the concentration of IP1 to that of protein. The increase rate of the IP1 production was shown as a relative value when Vehicle administration group as 100%.

activity (%) at 10 μM [1]	pEC50 [1]	SMILES	increase rate (% of Vehicle) ([2]; 10 mg/kg oral)	increase rate (% of Vehicle) ([2]; 3 mg/kg oral)
100%	7.55	Cc1nn(C)cc1-c1ccc(CN2Cc3ncnc(OCC(C)(F)F)c3C2=O)cc1 [Example 22, 4-(2,2-difluoropropoxy)-6-(4-(1,3-dimethyl-1H-pyrazol-4-yl)benzyl)-6,7-dihydro-5H-pyrrolo[3,4-d]pyrimidin-5-one]	71 % of Vehicle	–
94%	8.22	Cc1nn(C)cc1-c1ccc(CN2Cc3ncnc(OCC(C)(F)F)c3C2=O)c(F)c1 [Example 23, 4-(2,2-difluoropropoxy)-6-(4-(1,3-dimethyl-1H-pyrazol-4-yl)-2-fluorobenzyl)-6,7-dihydro-5H-pyrrolo[3,4-d]pyrimidin-5-one]	–	27 % of Vehicle
95%	7.72	Cn1cc(-c2ccc(CN3Cc4ncnc(OCC(C)(F)F)c4C3=O)cc2)cn1 [Example 78, 4-(2,2-difluoropropoxy)-6-(4-(1-methyl-1H-pyrazol-4-yl)benzyl)-6,7-dihydro-5H-pyrrolo[3,4-d]pyrimidin-5-one]	–	–
88%	7.49	Cn1cc(-c2ccc(CN3Cc4ccnc(OCC(C)(C)F)c4C3=O)c(F)c2)cn1 [Example 81, 4-(2-fluoro-2-methylpropoxy)-2-(2-fluoro-4-(1-methyl-1H-pyrazol-4-yl)benzyl)-1,2-dihydro-3H-pyrrolo[3,4-c]pyridin-3-one]	–	–
95%	7.77	Cc1nn(C)cc1-c1ccc(CN2Cc3ccnc(OCC(C)(C)F)c3C2=O)c(F)c1 [Example 82, 2-(4-(1,3-dimethyl-1H-pyrazol-4-yl)-2-fluorobenzyl)-4-(2-fluoro-2-methylpropoxy)-1,2-dihydro-3H-pyrrolo[3,4-c]pyridin-3-one]	–	–
96%	7.14	CCn1cc(-c2ccc(CN3Cc4ccnc(OCC(C)(F)F)c4C3=O)cc2)cn1 [Example 84, 4-(2,2-difluoropropoxy)-2-(4-(1-ethyl-1H-pyrazol-4-yl)benzyl)-1,2-dihydro-3H-pyrrolo[3,4-c]pyridin-3-one]	–	–
91%	7.68	Cn1cc(-c2ccc(CN3Cc4ccnc(OCC(C)(F)F)c4C3=O)c(F)c2)cn1 [Example 86, 4-(2,2-difluoropropoxy)-2-(2-fluoro-4-(1-methyl-1H-pyrazol-4-yl)benzyl)-1,2-dihydro-3H-pyrrolo[3,4-c]pyridin-3-one]	–	–
101%	7.49	Cn1cc(-c2ccc(CN3Cc4ccnc(OCC(F)(F)F)c4C3=O)c(F)c2)cn1 [Example 87, 2-(2-fluoro-4-(1-methyl-1H-pyrazol-4-yl)benzyl)-4-(2,2,2-trifluoroethoxy)-1,2-dihydro-3H-pyrrolo[3,4-c]pyridin-3-one]	–	–
101%	7.13	Cc1nn(C)cc1-c1ccc(CN2Cc3ccnc(OCC(F)(F)F)c3C2=O)c(F)c1 [Example 88, 2-(4-(1,3-dimethyl-1H-pyrazol-4-yl)-2-fluorobenzyl)-4-(2,2,2-trifluoroethoxy)-1,2-dihydro-3H-pyrrolo[3,4-c]pyridin-3-one]	–	–
95%	7.21	Cn1cc(-c2ccc(CN3Cc4ncnc(OCC(F)(F)F)c4C3=O)cc2)nn1 [Example 104, 6-(4-(1-methyl-1H-1,2,3-triazol-4-yl)benzyl)-4-(2,2,2-trifluoroethoxy)-6,7-dihydro-5H-pyrrolo[3,4-d]pyrimidin-5-one]	–	–
90%	7.54	Cn1cc(-c2ccc(CN3Cc4ccnc(OCC(C)(F)F)c4C3=O)c(F)c2)nn1 [Example 106, 4-(2,2-difluoropropoxy)-2-(2-fluoro-4-(1-methyl-1H-1,2,3-triazol-4-yl)benzyl)-1,2-dihydro-3H-pyrrolo[3,4-c]pyridin-3-one]	–	–
92%	7.14	Cn1cc(-c2ccc(CN3Cc4ccnc(OCC(C)(F)F)c4C3=O)cc2)nn1 [Example 107, 4-(2,2-difluoropropoxy)-2-(4-(1-methyl-1H-1,2,3-triazol-4-yl)benzyl)-1,2-dihydro-3H-pyrrolo[3,4-c]pyridin-3-one]	–	–
94%	7.80	Cc1nn(C)cc1-c1ccc(CN2Cc3ccnc(OCC(C)(F)F)c3C2=O)c(F)c1 [Example 108, 4-(2,2-difluoropropoxy)-2-(4-(1,3-dimethyl-1H-pyrazol-4-yl)-2-fluorobenzyl)-1,2-dihydro-3H-pyrrolo[3,4-c]pyridin-3-one]	–	–
101%	7.39	Cc1nn(C)cc1-c1ccc(CN2Cc3ccnc(OCC(F)F)c3C2=O)c(F)c1 [Example 112, 4-(2,2-difluoroethoxy)-2-(4-(1,3-dimethyl-1H-pyrazol-4-yl)-2-fluorobenzyl)-1,2-dihydro-3H-pyrrolo[3,4-c]pyridin-3-one]	–	–
102%	7.25	Cn1cc(-c2ccc(CN3Cc4ccnc(OCC(F)(F)F)c4C3=O)c(F)c2)nn1 [Example 114, 2-(2-fluoro-4-(1-methyl-1H-1,2,3-triazol-4-yl)benzyl)-4-(2,2,2-trifluoroethoxy)-1,2-dihydro-3H-pyrrolo[3,4-c]pyridin-3-one]	–	–
98%	7.37	Cn1cc(-c2ccc(CN3Cc4ccnc(OCC(F)F)c4C3=O)c(F)c2)nn1 [Example 115, 4-(2,2-difluoroethoxy)-2-(2-fluoro-4-(1-methyl-1H-1,2,3-triazol-4-yl)benzyl)-1,2-dihydro-3H-pyrrolo[3,4-c]pyridin-3-one]	–	–

SMILES	activity (%) at 10 μM [1]	pEC50 [1]	increase rate (% of Vehicle) ([2]; 10 mg/kg oral)	increase rate (% of Vehicle) ([2]; 3 mg/kg oral)
CCC(F)(F)COc1ncnc2c1C(=O)N(Cc1ccc(-c3cnn(C)c3)cc1)C2 [Example 75, 4-(2,2-difluorobutoxy)-6-(4-(1-methyl-1H-pyrazol-4-yl)benzyl)-6,7-dihydro-5H-pyrrolo[3,4-d]pyrimidin-5-one]	98%	7.89	–	–
CCC(F)(F)COc1nccc2c1C(=O)N(Cc1ccc(-c3cnn(CC(F)F)c3)cc1)C2 [Example 76, 4-(2,2-difluorobutoxy)-2-(4-(1-(2,2-difluoroethyl)-1H-pyrazol-4-yl)benzyl)-1,2-dihydro-3H-pyrrolo[3,4-c]pyridin-3-one]	94%	7.35	–	–
CCn1cc(-c2ccc(CN3Cc4ccnc(OCC(F)(F)CC)c4C3=O)cc2)cn1 [Example 77, 4-(2,2-difluorobutoxy)-2-(4-(1-ethyl-1H-pyrazol-4-yl)benzyl)-1,2-dihydro-3H-pyrrolo[3,4-c]pyridin-3-one]	99%	7.17	–	–
CCC(F)(F)COc1nccc2c1C(=O)N(Cc1ccc(-c3cnn(C)c3)cc1F)C2 [Example 92, 4-(2,2-difluorobutoxy)-2-(2-fluoro-4-(1-methyl-1H-pyrazol-4-yl)benzyl)-1,2-dihydro-3H-pyrrolo[3,4-c]pyridin-3-one]	94%	7.82	–	–
CCC(F)(F)COc1nccc2c1C(=O)N(Cc1ccc(-c3ccn(C)n3)cc1F)C2 [Example 97, 4-(2,2-difluorobutoxy)-2-(2-fluoro-4-(1-methyl-1H-pyrazol-3-yl)benzyl)-1,2-dihydro-3H-pyrrolo[3,4-c]pyridin-3-one]	104%	7.11	–	–

— patent US10208046B2, “Nitrogen-containing heterocyclic compound” (Takeda Pharmaceutical Company Limited, priority 2014, dated 2019)
